US20240391964A1, “COMPOSITIONS AND METHODS FOR THE TREATMENT OF CANCER” (The University of Western Australia, priority 2020, published 2024)

What was measured:
T11 tumours = assay: T11 allograft in BALB/c mice, intratumoral treatment; format: in vivo; settings: day 14 post-inoculation, mean±SEM
Method: To investigate the efficacy of the combination of melittin and docetaxel in reducing TNBC growth in vivo, T11 cells were transplanted in BALB/c mice. This allograft model recapitulates highly aggressive, TNBC claudin-low disease in mice with an intact immune system. Three days after the generation of T11 tumours (˜50 mm^3), mice were randomized into four groups (n=12 mice/group) and treated intratumorally with either vehicle, melittin (5 mg/Kg), docetaxel (7 mg/Kg), or a combination of melittin (5 mg/Kg) and docetaxel (7 mg/Kg). Mice were treated every two days from day three, with a total of seven treatments.
The therapeutic effects of melittin and docetaxel were validated in tumour tissues at day 14 post-inoculation of T11 cells by immunohistochemistry and immunofluorescence (FIG. 14A).

[1] = system: human TNBC and HER2-enriched breast cancer cells; assay: Cell viability dose-response assay, TNBC and HER2-enriched panel; format: cell-based; settings: range over human TNBC and HER2-enriched breast cancer cells
Method: (§2) To assess anticancer efficacy and selectivity, both venom from European honeybees collected in Perth, Australia and melittin peptide were evaluated in dose-response assays in a panel of cell lines representative of the intrinsic breast cancer subtypes and in non-transformed cells.
Data are presented as mean±SEM in ng/μL or μM (to two decimal places). Experiments were performed in biological triplicate.

SUM159 cells [2] = assay: Cleaved caspase-3 immunoblot; format: cell-based, human
SUM159 cells [3] = assay: Annexin V flow cytometry; format: cell-based, human; settings: IC50 concentration, 60 minutes, mean±SEM
Method: To quantify the apoptotic, necrotic or dead cell populations after treatment, flow cytometry for the detection of Annexin V (an early marker of apoptosis) was performed.

[4] = system: HDFa, SKBR3 and SUM159 cells; assay: Cell viability kinetics over one hour; format: cell-based, human; settings: IC50 concentrations
[5] = system: p-HER2, p-EGFR, p-p44/42 MAPK, p-Akt in SKBR3 cells; assay: Immunoblotting of RTK signalling, SKBR3; format: cell-based, human; settings: SKBR3, EGF exposed, IC50, from 5 minutes onwards
[6] = system: p-EGFR, p-Akt, p-p44/42 MAPK in SUM159 cells; assay: Immunoblotting of RTK signalling, SUM159; format: cell-based, human
[7] = system: EGFR and MAPK phosphorylation in MDA-MB-231 cells; assay: Immunoblotting of RTK signalling, MDA-MB-231; format: cell-based, human; settings: MDA-MB-231, EGF treatment
Method: To characterize the effects on signaling pathways in another TNBC model, immunoblotting was conducted on MDA-MB-231 cells, in which EGF treatment phosphorylated EGFR and induced EGFR expression (FIG. 8C). […] Other growth factor receptors such as VEGFR1 may mediate the activation of these pathways.

[8] = system: JAK/STAT pathway in SUM159 cells; assay: Western blot of JAK/STAT pathway; format: cell-based, human; settings: 60-minute treatment
T11 cells [9] = assay: Cell viability, combination with docetaxel; format: cell-based, murine; settings: T11, 48 hours
Method: FIG. 15 presents the results of cell viability assays of T11 breast cancer cells treated with melittin or RGD1-melittin alone and in combination with docetaxel for 48 hours. Representative plots of the combination treatments are presented as mean±SEM.
The murine p53 TNBC cell line T11 was treated with docetaxel in combination with either melittin or RGD1-melittin, and cell viability assays were conducted to determine the combination effect between the treatments (FIG. 15).

T11 cells [10] = assay: Cell viability, combination with omomyc; format: cell-based, murine; settings: T11, 24 hours
Method: FIG. 16 presents the results of cell viability assays of T11 breast cancer cells treated with melittin or RGD1-melittin alone and in combination with omomyc for 24 hours. Representative plots of the combination treatments are presented as mean±SEM.
The murine p53 TNBC cell line T11 was treated with omomyc in combination with either melittin or RGD1-melittin, and cell viability assays were conducted to determine the combination effect between the treatments (FIG. 16).

COV362 cells = format: cell-based; settings: COV362, 24 h
Method: (§1) The OVCAR3 and COV362 ovarian cancer cell lines were treated with active RGD1-melittin and mutant RGD1-melittin (DEDE-RGD1-melittin). The COV362 cells were cultured in DMEM low glucose medium supplemented with 10% FBS. The OVCAR3 cells were grown in RPMI medium supplemented with 20% FBS. Cells were seeded overnight at a density of 5000 cells/p96-well plate and treated with active RGD1-melittin and mutant RGD1-melittin (RGD1-DEDE melittin), for 24 h at concentrations up to 20 µM. After treatments, cell viability was assessed using the CellTiter-Glo® assay according to the manufacturer's protocol (Promega; NSW, Australia). Luminescence signals were measured using the EnVision Multilabel Plate Reader (PerkinsElmer Inc.; Waltham, MA, USA). IC50s were calculated and transformed 95% confidence intervals provided by GraphPad Prism 6 software analysis (GraphPad Software Inc., San Diego, CA, USA).

OVCAR3 cells = format: cell-based; settings: OVCAR3, 24 h
Method: as §1

SUM159 cells [11] = system: SUM159 cells
Method: FIG. 5C presents cell viability assays of human dermal fibroblasts (HDFa) and SUM159 treated with melittin (top) and RGD1-melittin (bottom) for 24 hours.
as §2

For `CC(=O)O[C@@]12CO[C@@H]1C[C@H](O)[C@@]1(C)C(=O)[C@H](O)C3=C(C)[C@@H](OC(=O)[C@H](O)[C@@H](NC(=O)OC(C)(C)C)c4ccccc4)C[C@@](O)([C@@H](OC(=O)c4ccccc4)[C@H]21)C3(C)C` [docetaxel], the “PD-L1 expression in tumours” value (T11 tumours) was 84.3±0.6% and the “tumour cell proliferation (Ki-67 expression)” value (T11 tumours) was 21.0±1.3%.
`CC[C@H](C)[C@H](NC(=O)CN)C(=O)NCC(=O)N[C@@H](C)C(=O)N[C@H](C(=O)N[C@@H](CC(C)C)C(=O)N[C@@H](CCCCN)C(=O)N[C@H](C(=O)N[C@@H](CC(C)C)C(=O)N[C@H](C(=O)N[C@H](C(=O)NCC(=O)N[C@@H](CC(C)C)C(=O)N1CCC[C@H]1C(=O)N[C@@H](C)C(=O)N[C@@H](CC(C)C)C(=O)N[C@H](C(=O)N[C@@H](CO)C(=O)N[C@@H](Cc1c[nH]c2ccccc12)C(=O)N[C@H](C(=O)N[C@@H](CCCCN)C(=O)N[C@@H](CCCNC(=N)N)C(=O)N[C@@H](CCCCN)C(=O)N[C@@H](CCCNC(=N)N)C(=O)N[C@@H](CCC(N)=O)C(=O)N[C@@H](CCC(N)=O)C(N)=O)[C@@H](C)CC)[C@@H](C)CC)[C@@H](C)O)[C@@H](C)O)C(C)C)C(C)C` [melittin] was tested, and the IC50 [1] was 0.94 to 1.49 µM, the “induction of apoptosis (cleaved caspase-3)” value (SUM159 cells [2]; 24 hours) was “confirmed the anticancer activity” and the “induction of cleaved caspase-3 (apoptosis)” value (SUM159 cells [2]; IC50 concentration, 18 and 24 hours) was “higher level of apoptosis than honeybee venom”. For the same compound, the late apoptotic/necrotic cells (SUM159 cells [3]) was 23.6±5.7%, the “cell viability over up to one hour” value [4] was “significantly reduced the viability of both breast cancer cell lines compared to the normal cells from 10 minutes onwards” and the “p-HER2 (Tyr1248), p-EGFR (Tyr1068), p-p44/42 MAPK (Thr202/Tyr204), p-Akt (Ser473 and Thr308)” value [5] was “strongly downregulated”. The “p-EGFR (Tyr1068)” value ([6]; SUM159, 10-20 minutes) was “strongly down-regulated”, the “p-p44/42 MAPK (Thr202/Tyr204)” value ([6]; SUM159, 10-20 minutes) was “upregulated” and the “p-Akt (Ser473 and Thr308)” value ([6]; SUM159, melittin all time points, venom 10-20 minutes) was “suppressed”. For the same compound, the “phosphorylation of EGFR and MAPK” value [7] was “reduced the phosphorylation of EGFR and MAPK”, the “effects on JAK/STAT pathway inhibitors” value [8] was “No modulatory effects” and the “PD-L1 expression in tumours” value (T11 tumours) was 52.9±2.4%. For the same compound, the “tumour cell proliferation (Ki-67 expression)” value (T11 tumours) was 31.7±1.3%, the “combination effect with docetaxel on cell viability” value (T11 cells [9]) was “beneficial effect when combined with docetaxel” and the “combination effect with omomyc on cell viability” value (T11 cells [10]) was “beneficial effect when combined with omomyc”. For the same compound, the IC50 (COV362 cells) was 7.81 µM, the IC50 (OVCAR3 cells) was 18.2 µM and the “ratio of the IC50s of HDFa/SUM159” value (SUM159 cells [11]; 24 hours, mean±SEM) was 1.76±0.04. The “half-maximal inhibitory concentration (IC50)” value (SUM159 cells [11]; TNBC SUM159) was 4.24 µg/mL.
